pKd: −log10 of the molar value. “And” between values parts separate entries of the source, which are not always exact repeats. Equal entries are not always repeated.
What was measured:
[1] = target: BACE-1 (mouse Protein, recombinant) (Mus musculus, UniProt P56818); assay: Nanotemper (Monolith NT.115) binding analysis
Description: For binding analysis, the Monolith NT.115 (Nanotemper) was used. BACE-1 (mouse Protein, recombinant, life technologies, 50002-M08H-250, LCL10JA2204)) was dissolved in 50 mM HEPES/100 mM NaCl, pH 5 to a concentration of 20 μM. […] Samples were loaded on standard capillaries (Nanotemper, MO-K022) and measured in triplicate at 22 °C, using 1%/60% LED power for Alexa488/Alexa568 and 10% MST power. Fluorescence was plotted against protein concentrations.

[2] = target: T1, wild-type hBACE1 in CHO-K1 cells (Homo sapiens, UniProt P56817); assay: Single molecule TIRF microscopy and bleaching step analysis in CHO-K1 cells; format: cell-based; details: 200 nM probe, fixed CHO-K1, TIRF, after rolling background subtraction
T1 construct: expressed in transfected cells; host or cells: CHO-K1
Description: Due to the high photostability and quantum yield of the Alexa dyes, the C3-compounds are potential tools for single molecule fluorescence microscopy of BACE1. […] CHO-K1 cells were transfected with wild-type BACE1. […] The samples were then recorded using total internal reflection fluorescence (TIRF) microscopy. […] Prior to analysis, ImageJ rolling background subtraction was applied[45] (Figure 6A, right panel). […] Single particles were identified and time traces of fluorescence intensity were extracted using GMimPro[46] (Figure 6B). The time traces were then subjected to a bleaching-step analysis with quickPBSA[47] (Figure 6B). […] The msfGFP was reported previously to display a fluorescence probability of about 50%, defined as combined probability of fluorescence, detection in the specific imaging system and identification in the analysis of a BACE1 molecule.[48] […] Here, the best fits indicated also a fluorescence probability of about 60%, but with a considerably lower fit error compared to dimers only (Figure 6D, blue traces).
The panel in the middle depicts typical single molecule complexes 48 h after transfection with 50 ng wild type BACE1. […] The insets highlight single fluorescence spots at higher magnification. […] (B) Single fluorescence spots were located and fluorescence intensities over time were extracted (see methods). […]

BACE-1 (mouse Protein, recombinant), sequence (P56818 46-457 limits assumed): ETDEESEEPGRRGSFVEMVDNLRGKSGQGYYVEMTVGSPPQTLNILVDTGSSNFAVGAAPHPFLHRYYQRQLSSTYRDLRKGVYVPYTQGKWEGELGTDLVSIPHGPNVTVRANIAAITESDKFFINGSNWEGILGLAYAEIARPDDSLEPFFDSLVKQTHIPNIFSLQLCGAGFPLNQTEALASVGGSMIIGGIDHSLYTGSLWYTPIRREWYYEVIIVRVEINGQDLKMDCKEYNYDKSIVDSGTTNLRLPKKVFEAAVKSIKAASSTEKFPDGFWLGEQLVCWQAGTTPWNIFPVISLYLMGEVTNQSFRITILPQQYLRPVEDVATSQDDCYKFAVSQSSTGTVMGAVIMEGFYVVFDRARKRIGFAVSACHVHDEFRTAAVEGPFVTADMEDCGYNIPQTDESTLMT
T1 sequence (P56817 46-501): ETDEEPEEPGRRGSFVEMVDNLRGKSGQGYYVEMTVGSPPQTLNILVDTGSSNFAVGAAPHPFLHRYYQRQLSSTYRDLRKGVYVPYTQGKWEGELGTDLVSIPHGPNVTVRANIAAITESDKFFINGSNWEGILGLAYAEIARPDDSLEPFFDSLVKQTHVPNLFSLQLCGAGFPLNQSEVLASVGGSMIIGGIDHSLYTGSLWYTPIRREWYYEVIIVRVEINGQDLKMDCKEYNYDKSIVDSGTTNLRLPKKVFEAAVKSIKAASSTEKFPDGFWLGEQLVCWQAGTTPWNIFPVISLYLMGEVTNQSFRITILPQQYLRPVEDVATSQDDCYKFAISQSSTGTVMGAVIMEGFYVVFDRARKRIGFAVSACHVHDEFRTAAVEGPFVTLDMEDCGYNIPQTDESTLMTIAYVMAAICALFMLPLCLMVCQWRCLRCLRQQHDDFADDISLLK

pKd [1]: 6.00 | fluorescence reading, single replicates ([1]; BACE1 concentration 0.305 (unit not given; 0.3–5000 nM), triplicate): 995.235 and 994.451 and 995.188 | fluorescence reading, single replicates ([1]; BACE1 concentration 0.61, triplicate): 995.092 and 995.228 and 995.025 | fluorescence reading, single replicates ([1]; BACE1 concentration 1.221, triplicate): 995.123 and 995.217 and 995.055 | fluorescence reading, single replicates ([1]; BACE1 concentration 2.441, triplicate): 994.777 and 994.504 and 994.766 | fluorescence reading, single replicates ([1]; BACE1 concentration 4.883, triplicate): 994.407 and 994.774 and 995.083 | fluorescence reading, single replicates ([1]; BACE1 concentration 9.766, triplicate): 995.092 and 994.263 and 994.945 | fluorescence reading, single replicates ([1]; BACE1 concentration 19.531, triplicate): 994.925 and 994.824 and 995.417 | fluorescence reading, single replicates ([1]; BACE1 concentration 39.062, triplicate): 994.869 and 994.87 and 995.275 | fluorescence reading, single replicates ([1]; BACE1 concentration 78.125, triplicate): 995.397 and 995.08 and 995.109 | fluorescence reading, single replicates ([1]; BACE1 concentration 156.25, triplicate): 995.324 and 994.996 and 995.206 | fluorescence reading, single replicates ([1]; BACE1 concentration 312.5, triplicate): 995.935 and 995.418 and 995.988 | fluorescence reading, single replicates ([1]; BACE1 concentration 625, triplicate): 996.951 and 996.59 and 996.649 | fluorescence reading, single replicates ([1]; BACE1 concentration 1250, triplicate): 999.327 and 998.59 and 999.026 | fluorescence reading, single replicates ([1]; BACE1 concentration 2500, triplicate): 1002.784 and 1002.705 and 1002.138 | fluorescence reading, single replicates ([1]; BACE1 concentration 5000, triplicate): 1000.96 and 1001.179 and 1001.396 | signal-to-background ratio [2]: 4.8
SMILES: C[C@@H](NC(=O)c1cc(C(=O)N[C@@H](Cc2ccccc2)[C@H](O)CNC2CC2)cc(N(C)S(=O)(=O)CCCNC(=O)c2ccc(C(=O)O)c(-c3c4ccc(=N)c(S(=O)(=O)O)c-4oc4c(S(=O)(=O)O)c(N)ccc34)c2)c1)c1ccccc1 [2-(6-Amino-3-iminio-4,5-disulfo-3H-xanthen-9-yl)-4-((3-(N-(3-(((2S,3R)-4-(cyclopropylamino)-3-hydroxy-1-phenylbutan-2-yl)carbamoyl)-5-(((R)-1-phenylethyl)carbamoyl)phenyl)-N-methylsulfamoyl)propyl)carbamoyl)benzoate]
